Experiments:
[1] = target: T1, BRD4-1 (binding domain 1 of BRD4) (Homo sapiens, UniProt O60885); test: BRD4 binding domain 1 inhibition (Reaction Biology Corp.); conditions: 10-point curve; read-out: Target IC50 BRD4-1
T1 construct: purchased Reaction Biology Corp., Malvern, Pa; (contract assay)
Description: (§1) The BTK, PI3K, and/or bromodomain inhibitory activity of a compound of the invention can be determined by methods known to the skilled artisan, or by procuring relevant analysis by a commercial vendor offering such services. […] In vivo, PI3K inhibition can be determined from target tissue biopsies by standard tissue processing in which cells are disrupted and Western Blot analysis is performed to determine the presence or absence of pAKT (substrate of PI3K) relative to a control sample. PI3K inhibition assays and BTK inhibition assays are known in the art and can be procured commercially through vendors such as Reaction Biology (Malvern, Pa.). The activity of a compound of the invention as an inhibitor of a bromodomain-containing protein, such as a BET protein, including BRD2, BRD3, BRD4, and/or BRDT, or an isoform or mutant thereof, may be determined in vitro, in vivo, or in a cell line. In vitro assays include assays that determine inhibition of bromodomain-containing proteins. Alternatively, inhibitor binding may be determined by running a competition experiment where a provided compound is incubated with a bromodomain-containing protein, such as a BET protein bound to known ligands, labeled or unlabeled. In vitro bromodomain inhibition assays can be performed using Alpha Screen Technology (Perkin Elmer Life and Analytical Sciences, Shelton, Conn.). In vivo bromodomain inhibition can be determined indirectly by evaluating the amount of a protein whose gene transcription is influenced or controlled by the bromodomain protein, for example, MYCN protein transcription is controlled by BRD4 (J. E. Delmore et al., Cell 2011, 146, 904-917; A. Puissant, Cancer Discov. 2013, 3, 308-323).
(§2) Compounds of the invention were analyzed for their ability to inhibit target proteins in vitro. PI3K alpha, gamma, and delta inhibition activity was determined by Thermo Fisher Scientific-Biosciences Life Sciences Solutions, Madison, Wis. The bromodomain protein inhibition (binding domain 1 and 2 of BRD4) was determined at Reaction Biology Corp., Malvern, Pa. BTK inhibition was performed by Reaction Biology Corp., Malvern, Pa.
(§3) Additional information regarding the testing procedures is available at each company's website on the internet. The IC50 data was calculated from a 10-point curve by the vendor and is compiled in ranges in the Table 6 below.

[2] = system: Granta519 cells; test: Cell viability (Celltiter-Glo), Granta519; type: cell-based; conditions: Homo sapiens, Granta-519, 48 hours
Description: (§4) The results of this experiment are shown in FIGS. 1A-1C, and in Table 7 below. Human mantle cell lymphoma cell lines were grown in 96 well plates with 5000 cells per well in RPMI 1640 media supplemented with 10% fetal bovine serum. Cells were treated for 48 hours with a concentration range of each compound from 50 nM to 50 uM. Cell viability a measure of viable cell numbers was determined using a Celltiter-Glo^R reagent for each concentration in order to construct an IC50 curve for each compound in each cell line.

[3] = target: T2, PI3K α (Homo sapiens, UniProt P42336); test: PI3K alpha inhibition (Thermo Fisher Scientific); type: biochemical; conditions: 10-point curve; read-out: Target IC50 PI3K α
T2 construct: purchased Thermo Fisher Scientific-Biosciences Life Sciences Solutions, Madison, Wis; (contract assay)
Description: as §1, §2, §3

[4] = target: T3, BTK (C481S) (Homo sapiens, UniProt Q06187, C481S); test: BTK cysteine mutant C481S inhibition (Reaction Biology Corp.); type: biochemical; conditions: for Ratio C481S/WT: ratio of the BTK IC50 values, C481S over wild-type
T3 construct: purchased Reaction Biology Corp., Malvern, Pa; (contract assay)
Description: as §2, §3

[5] = target: T4, BTK (WT) (Homo sapiens, UniProt Q06187); test: native BTK inhibition (Reaction Biology Corp.); type: biochemical; conditions: 10-point curve; read-out: Target IC50 BTK (WT)
T4 construct: purchased Reaction Biology Corp., Malvern, Pa; (contract assay)
Description: as §2, §3

[6] = target: T5, PI3K δ (Homo sapiens, UniProt O00329); test: PI3K delta inhibition (Thermo Fisher Scientific); type: biochemical; conditions: 10-point curve; read-out: Target IC50 PI3K δ
T5 construct: purchased Thermo Fisher Scientific-Biosciences Life Sciences Solutions, Madison, Wis; (contract assay)
Description: as §1, §2, §3

[7] = system: Human mantle cell lymphoma cell lines; test: Cell viability, mantle cell lymphoma cell lines (overall conclusion); type: cell-based; conditions: in vitro, 48 hours
Description: as §4

[8] = system: pBTK in JeKo cells; test: Washout Western blot for pBTK in IgM-stimulated JeKo cells; type: cell-based, human; conditions: 5 μM or 1 μM for 3 hours, washed with PBS three times, 4 hours recovery
[9] = system: Mino cells; test: Cell viability (Celltiter-Glo), Mino; type: cell-based; conditions: Homo sapiens, 48 hours
Description: as §4

[10] = system: JeKo-1 cells; test: Cell viability (Celltiter-Glo), JeKo-1; type: cell-based; conditions: Homo sapiens, 48 hours
Description: as §4

[11] = system: pBTK(Y223) in JeKo and Mino cells; test: Western blot, phosphorylation of BTK at Tyr223 in anti-IgM stimulated cells; type: cell-based, human; conditions: for Suppression of pBTK(Y223): JeKo cells stimulated with F(ab′) and anti-human IgM, various concentrations, FIG. 3B; for Suppression of pBTK (Tyr223): anti-IgM stimulated JeKo and Mino cells, FIGS. 2A-2D
[12] = system: pAKT(S473) in JeKo and Mino cells; test: Western blot, phosphorylation of AKT at Ser 473 in anti-IgM stimulated cells; type: cell-based, human; conditions: for Suppression of pAKT: JeKo cells stimulated with F(ab′) and anti-human IgM, various concentrations, FIG. 3B; for Suppression of pAKT (Ser 473): anti-IgM stimulated JeKo and Mino cells, FIGS. 2A-2D
Description: Phosphorylation of BTK at Tyr223 and AKT at Ser 473 were determined by Western blot analysis. The results are shown in FIGS. 2A-2B (JeKo cells) and FIGS. 2C-2D (Mino cells). Blots were reprobed for total BTK, AKT, and β-actin.

[13] = system: pAKT in JeKo cells; test: Washout Western blot for pAKT in IgM-stimulated JeKo cells; type: cell-based, human; conditions: 5 μM or 1 μM for 3 hours, washed with PBS three times, 4 hours recovery
[14] = target: T6, PI3K γ (Homo sapiens, UniProt P48736); test: PI3K gamma inhibition (Thermo Fisher Scientific); type: biochemical; conditions: 10-point curve; read-out: Target IC50 PI3K γ
T6 construct: purchased Thermo Fisher Scientific-Biosciences Life Sciences Solutions, Madison, Wis; (contract assay)
Description: as §1, §2, §3

[15] = system: JeKo-1 cells; test: Percentage cells in apoptosis, JeKo-1; type: cell-based, human
From the text: (§5) Additionally apoptosis data was obtained in both JeKo and Mino cells for compound 7.

[16] = system: Mino cells; test: Percentage cells in apoptosis, Mino; type: cell-based, human; conditions: 24-hour
From the text: as §5

[17] = system: pBTK(Y223) in JeKo-BTK-WT and JeKo-BTK-C481S cells; test: Western blot for pBTK(Y223) in JeKo-BTK wild-type and JeKo-BTK-C481S cells; type: cell-based, human; conditions: 1 hour, different concentrations, FIGS. 6A and 6B
[18] = target: T7, BRD4-2 (binding domain 2 of BRD4) (Homo sapiens, UniProt O60885); test: BRD4 binding domain 2 inhibition (Reaction Biology Corp.); conditions: 10-point curve; read-out: Target IC50 BRD4-2
T7 construct: purchased Reaction Biology Corp., Malvern, Pa; (contract assay)
Description: as §1, §2, §3

[19] = system: JeKo and Mino cells; test: Apoptosis, both mantle cell lymphoma lines (overall statement); type: cell-based, human
From the text: as §5

[20] = system: pAKT(S473) in JeKo-BTK-WT and JeKo-BTK-C481S cells; test: Western blot for pAKT in JeKo-BTK wild-type and JeKo-BTK-C481S cells; type: cell-based, human; conditions: 1 hour, different concentrations, FIGS. 6A and 6B
[21] = target: T8, fluorophore-tagged BRD4 fusion protein (Homo sapiens, UniProt O60885); test: Chromatin-release assay in JeKo cells; type: cell-based; conditions: 1 μM, confocal microscopy
T8 construct: expressed in transfected cells; host or cells: JeKo cells
Description: A chromatin-release assay was performed on JeKo cells treated with 1 μM Compound 7.

[22] = system: JeKo cells; test: Cell cycle analysis in JeKo cells; type: cell-based, human; conditions: MCL cells, 5 μM, FIG. 4
[23] = system: pBTK in JeKo-BTK-C481S cells; test: Washout immunoblot for pBTK in JeKo-BTK-C481S cells; type: cell-based, human; conditions: 3 hours, washed with PBS, 4 hours recovery, FIG. 6C
[24] = system: PI3 kinases; conditions: cited from earlier work
[25] = system: breast cancer stem cells; conditions: women with breast tumors with high levels of HER2 protein; decreased from 11%; cited from earlier work

T3 sequence (Q06187 whole entry C481S): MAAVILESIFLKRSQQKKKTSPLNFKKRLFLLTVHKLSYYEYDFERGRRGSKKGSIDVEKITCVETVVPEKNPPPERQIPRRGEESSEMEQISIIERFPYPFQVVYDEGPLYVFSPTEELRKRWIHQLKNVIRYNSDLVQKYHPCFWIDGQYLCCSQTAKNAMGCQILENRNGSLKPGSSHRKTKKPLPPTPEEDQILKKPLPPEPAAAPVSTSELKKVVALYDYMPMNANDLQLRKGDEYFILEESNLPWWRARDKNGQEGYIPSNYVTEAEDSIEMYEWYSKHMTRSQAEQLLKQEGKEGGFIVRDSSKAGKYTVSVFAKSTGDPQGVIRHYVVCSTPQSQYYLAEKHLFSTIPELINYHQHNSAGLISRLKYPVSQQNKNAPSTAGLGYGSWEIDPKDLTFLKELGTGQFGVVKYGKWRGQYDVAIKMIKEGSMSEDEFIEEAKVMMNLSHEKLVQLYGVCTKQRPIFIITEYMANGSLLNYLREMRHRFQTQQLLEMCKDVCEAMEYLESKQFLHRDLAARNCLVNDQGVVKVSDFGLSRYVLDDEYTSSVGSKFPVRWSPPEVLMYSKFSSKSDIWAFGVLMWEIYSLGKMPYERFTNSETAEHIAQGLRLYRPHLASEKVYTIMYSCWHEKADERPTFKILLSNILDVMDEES
T2 sequence (P42336 whole entry): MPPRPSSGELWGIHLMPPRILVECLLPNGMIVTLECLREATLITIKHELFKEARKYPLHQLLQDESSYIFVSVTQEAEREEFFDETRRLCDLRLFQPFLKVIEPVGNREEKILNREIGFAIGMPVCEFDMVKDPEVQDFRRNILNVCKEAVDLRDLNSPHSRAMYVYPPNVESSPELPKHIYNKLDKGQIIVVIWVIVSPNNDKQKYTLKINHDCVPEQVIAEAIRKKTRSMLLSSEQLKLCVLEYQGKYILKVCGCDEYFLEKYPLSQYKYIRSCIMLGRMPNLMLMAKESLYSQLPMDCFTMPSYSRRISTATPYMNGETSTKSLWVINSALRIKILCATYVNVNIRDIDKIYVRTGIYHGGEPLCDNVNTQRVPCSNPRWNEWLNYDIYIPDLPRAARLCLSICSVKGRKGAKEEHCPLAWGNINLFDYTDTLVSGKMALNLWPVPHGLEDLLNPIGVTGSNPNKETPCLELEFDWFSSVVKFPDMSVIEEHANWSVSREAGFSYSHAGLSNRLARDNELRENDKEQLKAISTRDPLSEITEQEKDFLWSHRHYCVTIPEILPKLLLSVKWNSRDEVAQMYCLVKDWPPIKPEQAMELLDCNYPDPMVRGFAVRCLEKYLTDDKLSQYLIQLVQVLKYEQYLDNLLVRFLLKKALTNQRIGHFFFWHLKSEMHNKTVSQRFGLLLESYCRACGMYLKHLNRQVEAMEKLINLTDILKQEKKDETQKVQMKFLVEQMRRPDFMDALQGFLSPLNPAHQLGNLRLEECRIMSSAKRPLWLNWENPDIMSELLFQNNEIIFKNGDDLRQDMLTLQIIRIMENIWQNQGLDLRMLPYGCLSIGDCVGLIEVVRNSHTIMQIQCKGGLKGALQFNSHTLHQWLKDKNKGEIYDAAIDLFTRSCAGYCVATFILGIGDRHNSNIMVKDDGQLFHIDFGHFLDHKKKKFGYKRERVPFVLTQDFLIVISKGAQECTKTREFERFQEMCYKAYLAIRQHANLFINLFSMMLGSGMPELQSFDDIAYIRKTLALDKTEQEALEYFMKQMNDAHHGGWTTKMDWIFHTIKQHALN
T2 sequence (P27986 whole entry partner): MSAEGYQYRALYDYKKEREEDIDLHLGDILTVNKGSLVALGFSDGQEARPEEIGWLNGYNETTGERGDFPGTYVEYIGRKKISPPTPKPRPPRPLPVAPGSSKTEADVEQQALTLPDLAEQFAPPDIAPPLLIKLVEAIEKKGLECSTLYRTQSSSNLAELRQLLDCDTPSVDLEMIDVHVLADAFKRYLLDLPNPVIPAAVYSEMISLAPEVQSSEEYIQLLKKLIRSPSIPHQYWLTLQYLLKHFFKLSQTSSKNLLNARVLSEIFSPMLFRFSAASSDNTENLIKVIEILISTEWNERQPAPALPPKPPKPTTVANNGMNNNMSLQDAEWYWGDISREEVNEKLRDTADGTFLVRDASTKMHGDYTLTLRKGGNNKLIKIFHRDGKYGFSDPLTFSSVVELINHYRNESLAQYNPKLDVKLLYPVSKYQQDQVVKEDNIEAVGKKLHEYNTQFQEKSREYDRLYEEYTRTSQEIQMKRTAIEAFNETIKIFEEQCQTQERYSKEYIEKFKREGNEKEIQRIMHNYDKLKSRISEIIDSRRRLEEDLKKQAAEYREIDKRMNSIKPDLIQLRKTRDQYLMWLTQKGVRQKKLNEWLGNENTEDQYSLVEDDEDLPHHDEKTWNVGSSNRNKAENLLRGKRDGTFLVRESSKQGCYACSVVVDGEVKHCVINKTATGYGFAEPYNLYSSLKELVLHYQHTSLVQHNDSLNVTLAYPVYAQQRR
T5 sequence (O00329 whole entry): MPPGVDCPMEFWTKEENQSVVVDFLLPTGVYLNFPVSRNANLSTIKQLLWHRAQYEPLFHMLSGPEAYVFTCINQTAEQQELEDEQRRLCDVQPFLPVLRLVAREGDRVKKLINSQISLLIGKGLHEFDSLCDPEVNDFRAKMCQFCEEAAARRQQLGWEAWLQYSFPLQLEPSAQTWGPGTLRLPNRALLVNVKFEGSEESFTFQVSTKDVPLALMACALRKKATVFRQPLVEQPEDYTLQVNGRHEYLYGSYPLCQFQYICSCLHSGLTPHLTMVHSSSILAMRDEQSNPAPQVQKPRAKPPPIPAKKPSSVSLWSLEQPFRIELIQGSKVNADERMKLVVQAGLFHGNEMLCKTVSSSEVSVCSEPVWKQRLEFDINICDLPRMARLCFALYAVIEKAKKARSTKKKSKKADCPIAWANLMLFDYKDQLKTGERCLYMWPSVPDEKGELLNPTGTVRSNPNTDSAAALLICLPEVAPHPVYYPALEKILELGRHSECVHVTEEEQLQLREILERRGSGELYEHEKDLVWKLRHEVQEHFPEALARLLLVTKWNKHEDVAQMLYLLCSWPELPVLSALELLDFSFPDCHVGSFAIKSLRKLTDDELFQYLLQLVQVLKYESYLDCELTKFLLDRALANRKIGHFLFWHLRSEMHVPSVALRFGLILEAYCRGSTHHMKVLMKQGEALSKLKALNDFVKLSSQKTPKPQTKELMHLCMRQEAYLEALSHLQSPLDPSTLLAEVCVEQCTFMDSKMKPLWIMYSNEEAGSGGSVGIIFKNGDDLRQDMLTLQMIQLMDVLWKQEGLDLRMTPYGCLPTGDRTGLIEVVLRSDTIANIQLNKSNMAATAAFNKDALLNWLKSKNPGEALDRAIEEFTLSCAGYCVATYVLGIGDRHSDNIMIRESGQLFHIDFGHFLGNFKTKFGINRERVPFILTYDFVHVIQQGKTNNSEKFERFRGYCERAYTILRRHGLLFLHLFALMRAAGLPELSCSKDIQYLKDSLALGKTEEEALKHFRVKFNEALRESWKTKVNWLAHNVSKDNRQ
T5 sequence (P27986 whole entry partner): as the sequence (P27986 whole entry partner) above
T4 sequence (Q06187 whole entry): as the sequence (Q06187 whole entry C481S) above, with S481C counted along it
T6 sequence (P48736 whole entry): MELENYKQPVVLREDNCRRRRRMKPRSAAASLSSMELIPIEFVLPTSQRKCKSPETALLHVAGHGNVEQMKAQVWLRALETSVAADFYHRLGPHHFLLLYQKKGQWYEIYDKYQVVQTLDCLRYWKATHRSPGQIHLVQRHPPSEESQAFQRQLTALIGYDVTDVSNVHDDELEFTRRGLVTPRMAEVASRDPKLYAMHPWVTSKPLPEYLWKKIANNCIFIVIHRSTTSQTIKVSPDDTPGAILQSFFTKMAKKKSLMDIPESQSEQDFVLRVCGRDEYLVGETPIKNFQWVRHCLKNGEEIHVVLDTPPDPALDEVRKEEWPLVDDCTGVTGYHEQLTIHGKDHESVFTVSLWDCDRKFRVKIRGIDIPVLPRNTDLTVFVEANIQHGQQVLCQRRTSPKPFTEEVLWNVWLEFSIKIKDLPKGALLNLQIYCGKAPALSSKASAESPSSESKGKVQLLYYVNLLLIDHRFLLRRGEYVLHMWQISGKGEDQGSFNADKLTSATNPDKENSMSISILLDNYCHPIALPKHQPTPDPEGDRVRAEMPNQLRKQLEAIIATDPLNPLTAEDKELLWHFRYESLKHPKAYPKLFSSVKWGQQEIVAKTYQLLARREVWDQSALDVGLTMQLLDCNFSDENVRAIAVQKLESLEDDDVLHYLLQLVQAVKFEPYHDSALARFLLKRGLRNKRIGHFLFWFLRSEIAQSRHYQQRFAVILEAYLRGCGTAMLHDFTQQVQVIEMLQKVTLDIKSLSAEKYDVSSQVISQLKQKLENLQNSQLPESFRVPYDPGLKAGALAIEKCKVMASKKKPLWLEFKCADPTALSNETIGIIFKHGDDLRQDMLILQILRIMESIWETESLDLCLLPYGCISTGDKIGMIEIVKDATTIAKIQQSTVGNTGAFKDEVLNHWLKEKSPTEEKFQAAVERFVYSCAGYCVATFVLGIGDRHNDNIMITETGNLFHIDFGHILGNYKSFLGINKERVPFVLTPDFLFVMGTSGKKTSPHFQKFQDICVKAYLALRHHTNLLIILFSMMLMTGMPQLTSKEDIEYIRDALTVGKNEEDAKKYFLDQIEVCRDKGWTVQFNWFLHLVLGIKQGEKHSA

IC50 [1]	IC50 [3]	Ratio C481S/WT [4]	IC50 [5]	IC50 [6]	Compound	IC50 [2]	Potency in reducing mantle cell lymphoma viability as compared to Ibrutinib [7]	IC50 [9]	IC50 [10]	Suppression of pBTK(Y223) [11]	Suppression of pBTK (Tyr223) [11]	Suppression of pAKT [12]	Suppression of pAKT (Ser 473) [12]	other results
< 1 µM	< 1 µM	>81	< 1 µM	< 1 µM	C=CC(=O)Nc1cccc(-c2csc3c(=O)cc(N4CCOCC4)oc23)c1 [Compound 1, 1-[m-(5-Morpholino-7-oxo-4-oxa-1-thia-3-indenyl)phenylamino]-2-propen-1-one]	1 to 10 µM	markedly more potent	< 1 µM	1 to 10 µM	suppressed	block the catalytic activity	suppressed	block the catalytic activity	pBTK inhibition after washing [8]: not diminished by washing; pAKT after washing [13]: restored after washing
< 1 µM	< 1 µM	728	< 1 µM	< 1 µM	C=CC(=O)N1CCOc2ccc(-c3csc4c(=O)cc(N5CCOCC5)oc34)cc21 [Compound 7, 1-[7-(5-Morpholino-7-oxo-4-oxa-1-thia-3-indenyl)-4-oxa-1-aza-2,3-dihydro-1H-naphth-1-yl]-2-propen-1-one]	1 to 10 µM	markedly more potent	< 1 µM	< 1 µM	–	block the catalytic activity	–	block the catalytic activity	IC50 ([4]; 10-point curve, read-out: Target IC50 BTK (C481S)): 10 to 30 µM; IC50 [14]: < 1 µM; Percentage cells in apoptosis ([15]; JeKo-1, 24-hour, Early): + (less than 5%); Percentage cells in apoptosis ([15]; JeKo-1, 24-hour, Late): +++ (between 10% and 30%); Percentage cells in apoptosis ([15]; JeKo-1, 24-hour, Total): +++ (between 10% and 30%); Percentage cells in apoptosis ([15]; JeKo-1, 48-hour, Early): +++ (between 10% and 30%); Percentage cells in apoptosis ([15]; JeKo-1, 48-hour, Late): +++ (between 10% and 30%); Percentage cells in apoptosis ([15]; JeKo-1, 48-hour, Total): ++++ (between 30% and 50%); Percentage cells in apoptosis ([16]; Early): +++ (between 10% and 30%); Percentage cells in apoptosis ([16]; Late): ++ (between 5% and 10%); Percentage cells in apoptosis ([16]; Total): +++ (between 10% and 30%); Inhibition of pBTK [17]: inhibit pBTK; IC50 [18]: < 1 µM; Apoptosis compared with exposure to Ibrutinib [19]: much more apoptosis; Inhibition of pAKT [20]: inhibits pAKT and in a dose dependent manner; Release of BRD4 from chromatin [21]: released a fluorophore-tagged BRD4 fusion protein from chromatin; Cell cycle effect [22]: Cell Cycle Arrest; pBTK suppression activity upon washout [23]: irreversible
–	–	–	–	–	C=CC(=O)Nc1ccc(-c2csc3c(=O)cc(N4CCOCC4)oc23)cc1 [Compound 13]	< 1 µM	markedly more potent	< 1 µM	< 1 µM	suppressed	–	suppressed	–	–
–	–	–	–	–	O=c1cc(N2CCOCC2)oc2c(-c3ccccc3)cccc12 [LY294002, 2-(4-morpholinyl)-8-phenyl-4H-1-benzopyran-4-one]	–	–	–	–	–	–	–	–	IC50 [24]: 1.4 µM
–	–	–	–	–	CS(=O)(=O)CCNCc1ccc(-c2ccc3ncnc(Nc4ccc(OCc5cccc(F)c5)c(Cl)c4)c3c2)o1 [Lapatinib]	–	–	–	–	–	–	–	–	Breast cancer stem cells in biopsies [25]: 5 % of cells
